From patent publication US9657348B2, “Method of screening compounds for the treatment of diabetes” (ATROGI AB, priority 2013, dated 2017)
“Also recorded” adds a separate entry of the source. Starred links: 1 amine or outer side, 2 acyl side, 3 side chain; linkers in the order of their positions; H or OH if unused. Positions of bridges follow the written chain, without caps; N, C: chain ends. Non-standard residues stand in square brackets, D forms with d. Residues, ends and D or L forms follow the SMILES beside them. Chains are numbered I, II in the order given. Actinocin(9to1) = Cc1c2oc3c(C)ccc(C(=O)[*:1])c3nc-2c(C(=O)[*:2])c(N)c1=O; NMeV = CN[C@H](C(=O)O)C(C)C; Sar = CNCC(=O)O

Assays:
[1] = test system: Human prostate carcinoma (22rv1) cells; experiment: Glucose uptake in 22rv1 cells with or without GRK2 siRNA; assay type: cell-based; settings: FIG. 8
Description: Human prostate carcinoma (22rv1) cells were grown for 7 days in RPMI-1640 medium. […] At day 7, 22rv1 cells were treated with siRNA. siRNA constructs GRK2 (Sigma Aldrich) as well as control sequence were transfected into 22rv1 cells by lipofectamine (Life Technologies Corp.) according to the manufacturer's protocol. Cells were serum starved over night and glucose uptake was measured 24 hours after transfection. Cells were stimulated with drugs for totally 2 h, unless otherwise stated.

[2] = test system: L6 skeletal muscle cells; experiment: 3H-2-deoxyglucose uptake in L6 myotubes, with or without inhibitors or GRK2 siRNA; assay type: cell-based, rat; settings: for basal glucose uptake in presence of inhibitor / insulin- and GPCR-stimulated glucose uptake in presence of inhibitor / glucose uptake / effect of GRK2 knock-down with siRNA on glucose uptake stimulated by the substance: L6 myotubes; for basal glucose uptake in presence of inhibitor / insulin- and GPCR-stimulated glucose uptake in presence of inhibitor: inhibitor pretreatment 30 min; for insulin- and GPCR-stimulated glucose uptake in presence of inhibitor: then insulin or GPCR stimulation; for glucose uptake: stimulation with drug; for effect of GRK2 knock-down with siRNA on glucose uptake stimulated by the substance: FIG. 7, FIG. 9B
Description: Cells were grown as in Example 1. Cells were pretreated with inhibitors for 30 min and then exposed to GPCR stimulation.
GRK2 siRNA constructs (Sigma Aldrich) as well as control sequence was transfected into L6 mytoubes by electroporation. Differentiated L6 cells were detached by washing in PBS followed by 5 minutes of incubation in trypsin/EDTA (0.1% trypsin w/v, 0.02% EDTA w/v). The detached cells were transferred to Eppendorf tubes and centrifugation at 1000×g for 3 minutes was performed before supernatant was removed and the cells were resuspended in 20 μl/well of SE Cell Line Nucleofector® (Lonza) and 100 nM siRNA. Cells were transferred to a 16-well microcuvette plate (Lonza) and were electroporated in a 4D-Nucleofector® (Lonza). 80 μl of pre-warmed RPMI1640 medium were added to the each microcuvette well for 5 min before the cells were transferred to the Eppendorf tubes containing culture media. Cells were serum starved over night and glucose uptake measured 24 hours after transfection.
Glucose uptake was detected by ^3H-2-dexoy-glucose as previously described (Nevzorova 2002), with minor modifications. Differentiated L6-myotubes were serum-starved over night in media containing 0.5% fatty-acid free BSA and stimulated with agonists for totally 2 h, unless otherwise stated. Cells were exposed to 50 nM ^3H-2-dexoy-glucose in glucose free media for 6-10 minutes before the experiment was ended by washing the cells in ice-cold PBS or glucose free media. Cells were lysed in 0.2 M NaOH for 1 h in 60° C., mixed with scintillation buffer (Emulsifier Safe, Perkin Elmer) and radioactivity detected in a β-counter (Tri-Carb 2800TR, Perkin Elmer).

[3] = test system: GLUT4; experiment: GLUT4 translocation to plasma membrane by immunocytochemistry in L6 cells; assay type: cell-based, rat; settings: non-permeabilized L6 myoblasts; 1 μM, 2 h
[4] = test system: cAMP; experiment: cAMP content over time in L6 myotubes; assay type: cell-based, rat; settings: for maximum difference in cAMP versus cells not brought into contact (Δ1): L6 myotubes
Description: Further, to determine whether contacting BRL37344 causes a response of a classical secondary messenger in cells with which it is brought into contact, the concentration of cAMP was measured during a period of time. As a reference, cAMP in cells not brought into contact was measured. In FIG. 9A the difference Δ1 for BRL37344 is plotted, and the maximum difference is about 8 pmol. […] The calculated value of r″ therefore is 8/45=0.18.

[5] = test system: soleus muscle; experiment: 3-O-methylglucose transport (glucose uptake) in isolated soleus muscle; assay type: cell-based; settings: soleus muscle from rat; FIG. 1A
Description: (§1) Soleus muscles were dissected from Sprague-Dawley rats and suspended in Krebs-Henseleit bicarbonate (KHB) buffer (118.5 mM NaCl, 4.7 mM KCl, 1.2 mM KH2PO4, 25 mM NaHCO3, 2.5 mM CaCl2, 1.2 mM MgSO4, 5 mM HEPES) in organ baths containing 30 ml KHB containing 5 mM glucose and 15 mM mannitol, bubbled with 95% O2/5% CO2 (pH 7.4) and maintained at 37° C. […] Muscles were rinsed with KHB (20 mM mannitol) for 10 min, then incubated in KHB (8 mM 3-O-methylglucose and 12 mM mannitol with 438 μCi/mmol 3-O-methyl[3H]glucose (80.2 Ci/mmol; PerkinElmer) and 42 μCi/mmol [^14C] mannitol (58.8 mCi/mmol; PerkinElmer, USA)) for 12 min. Muscles were then rinsed with PBS and frozen in liquid nitrogen, weighed and dissolved in 1 mL of 0.5M NaOH at 60° C. ^3H and ^14C were measured by liquid scintillation counting. Total muscle 3-O-methylglucose and extracellular space were measured as described previously (Zierath 1995). Intracellular 3-O-methylglucose accumulation was calculated by: (Total muscle 3-O-methylglucose)−(extracellular 3-O-methylglucose)=intracellular 3-O-methylglucose. This was then expressed as a rate of 3-O-methylglucose transport per mL of intracellular water per hour. Glucose uptake was measured in L6 skeletal muscle cells and in human skeletal muscle cells (SKMC) grown in 12-well plates using ^3H-2-deoxyglucose as previously described (Nevzorova et al. 2002) with minor modifications. […]

[6] = test system: human skeletal muscle cells (SKMC); experiment: 3H-2-deoxyglucose uptake in human skeletal muscle cells; assay type: cell-based; settings: FIG. 1C
Description: as §1

[7] = test system: L6 skeletal muscle cells; experiment: Cell viability of L6 cells under transcription/translation inhibitor

Compound: CS(=O)(=O)Nc1c(O)ccc2c1CCCC2C1=NCCN1 (centres unmarked) [A61603]
- effect of GRK2 down-regulation with siRNA on glucose uptake stimulated by the substance [1]: inhibited

Compound: O=C(CCc1ccc(O)cc1)c1c(O)cc(O)cc1O [Phloretin, phloretin]
- basal glucose uptake in presence of inhibitor [2]: blocked basal glucose uptake
- insulin- and GPCR-stimulated glucose uptake in presence of inhibitor [2]: significantly reduced

Compound: CC(C)NCC(O)c1ccc(O)c(O)c1 (racemic) [isoproterenol, (RS)-4-[1-hydroxy-2-(isopropylamino)ethyl]benzene-1,2-diol]
- GLUT4 recruitment to the plasma membrane [3]: GLUT4 recruitment to the plasma membrane to the same extent
- maximum difference in cAMP versus cells not brought into contact (Δ1) ([4]; FIG. 9A): about 45 pmol
- glucose uptake [5]: leads to glucose uptake
- glucose uptake [6]: leads to glucose uptake

Compound: NC[C@H](O)c1ccc(O)c(O)c1 [norepinephrine (NA), norepinephrine]
- effect of GRK2 down-regulation with siRNA on glucose uptake stimulated by the substance [1]: inhibited

Compound: Cc1c2oc3c(C)ccc(C(=O)N[C@@H]4C(=O)N[C@H](C(C)C)C(=O)N5CCC[C@H]5C(=O)N(C)CC(=O)N(C)[C@@H](C(C)C)C(=O)O[C@@H]4C)c3nc-2c(C(=O)N[C@@H]2C(=O)N[C@H](C(C)C)C(=O)N3CCC[C@H]3C(=O)N(C)CC(=O)N(C)[C@@H](C(C)C)C(=O)O[C@@H]2C)c(N)c1=O [actinomycin, Actinomycin D] (I: T[dV]P[Sar][NMeV] / II: T[dV]P[Sar][NMeV]; ester I:1-I:C, II:1-II:C; linker I:N-II:N via Actinocin(9to1))
- basal glucose uptake in presence of inhibitor [2]: did not significantly affect
- insulin- and GPCR-stimulated glucose uptake in presence of inhibitor [2]: did not significantly affect
- cell viability [7]: did not significantly affect

Compound: Cc1cc(C(C)(C)C)c(O)c(C)c1CC1=NCCN1 [oxymetazoline]
- effect of GRK2 down-regulation with siRNA on glucose uptake stimulated by the substance [1]: inhibited

Compound: CC(C)(C)NC(=O)[C@@H]1CN(Cc2cccnc2)CCN1C[C@@H](O)C[C@@H](Cc1ccccc1)C(=O)N[C@H]1c2ccccc2C[C@H]1O [indinavir]
- basal glucose uptake in presence of inhibitor [2]: blocked basal glucose uptake
- insulin- and GPCR-stimulated glucose uptake in presence of inhibitor [2]: significantly reduced

Compound: insulin
- effect of GRK2 down-regulation with siRNA on glucose uptake stimulated by the substance [1]: does not inhibit
- GLUT4 recruitment to the plasma membrane [3]: GLUT4 recruitment to the plasma membrane to the same extent
- glucose uptake [2]: increased glucose uptake
- effect of GRK2 knock-down with siRNA on glucose uptake stimulated by the substance [2]: could not be blocked; also recorded: does not inhibit

Compound: C[C@H](Cc1ccc(OCC(=O)O)cc1)NC[C@H](O)c1cccc(Cl)c1 (relative stereo) [BRL37344, (±)-(R*,R*)-[4-[2-[[2-(3-chlorophenyl)-2-hydroxy-ethyl]amino]propyl]phenoxy]acetic acid]
- ratio r″ (cAMP response of compound / cAMP response of isoproterenol) ([4]; 8/45): 0.18
- maximum difference in cAMP versus cells not brought into contact (Δ1) ([4]; FIG. 9A): about 8 pmol
- contents of cAMP over basal ([4]; skeletal muscle cells (L6 myotubes), all time points, FIG. 9A): did not significantly increase
- glucose uptake in % of the glucose uptake of the same cells brought into contact with vehicle only ([2]; (untransfected) cells expressing GRK2, FIG. 9B): 175%
- glucose uptake [2]: stimulate glucose uptake
- effect of GRK2 knock-down with siRNA on glucose uptake stimulated by the substance [2]: significantly inhibited
- glucose uptake in % of vehicle ([2]; transfected (GRK2 siRNA) cells not expressing GRK, FIG. 9B): 125%

Compound: C=C1[C@@H](C)[C@H]2[C@H](Cc3ccccc3)NC(=O)[C@]23OC(=O)/C=C/[C@H](O)CCC[C@@H](C)C/C=C/[C@H]3[C@@H]1O [cytochalasin B]
- basal glucose uptake in presence of inhibitor [2]: reduced basal glucose uptake
- insulin- and GPCR-stimulated glucose uptake in presence of inhibitor [2]: reduced

Compound: C[C@@H]1C[C@@H]([C@H](O)CC2CC(=O)NC(=O)C2)C(=O)[C@@H](C)C1 [cyclohexamide]
- basal glucose uptake in presence of inhibitor [2]: did not affect
- insulin- and GPCR-stimulated glucose uptake in presence of inhibitor [2]: did not affect
